Data from patent US9868746B2, “Substituted 5-aminothieno[2,3-C]pyridazine-6-carboxamide analogs as positive allosteric modulators of the muscarinic acetylcholine receptor M4” (Vanderbilt University, priority 2012, dated 2018).

Molecular target: T1, mAChR M4 (Homo sapiens, UniProt P08173)
T1 construct: expressed in transfected cells; host or cells: CHO-K1 cells stably transfected with M4 cDNA and chimeric G-protein Gqi5
T1 sequence (P08173 1-479): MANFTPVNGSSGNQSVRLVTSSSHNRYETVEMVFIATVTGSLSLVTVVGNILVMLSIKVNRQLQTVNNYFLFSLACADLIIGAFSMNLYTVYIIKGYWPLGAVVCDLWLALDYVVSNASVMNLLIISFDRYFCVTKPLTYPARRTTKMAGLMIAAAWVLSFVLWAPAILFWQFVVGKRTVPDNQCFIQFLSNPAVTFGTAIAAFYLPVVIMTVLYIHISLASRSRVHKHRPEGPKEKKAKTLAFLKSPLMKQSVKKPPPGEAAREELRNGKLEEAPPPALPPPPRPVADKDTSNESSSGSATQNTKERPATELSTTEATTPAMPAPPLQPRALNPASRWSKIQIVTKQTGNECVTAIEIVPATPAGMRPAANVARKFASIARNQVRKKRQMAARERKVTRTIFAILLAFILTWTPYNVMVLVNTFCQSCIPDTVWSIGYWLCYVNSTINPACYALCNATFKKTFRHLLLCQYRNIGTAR
Experiment: mAChR M4 cell-based functional assay (calcium mobilization, potentiation of EC20 acetylcholine response)
Conditions: for Emax at 30 µM / Emax (%)*: % ACh maximum at 30 μM; for EC50: mAChR M4 cell-based functional assay, >10,000 estimated for low potency compounds without plateau, read-out: EC50

SMILES	Emax at 30 µM	EC50	Emax (%)*
Cc1nnc2sc(C(=O)N3CC(F)(c4ccc(-c5cnn(C)c5)cc4)C3)c(N)c2c1C [Example B319]	51%	390 nM	
Cc1nnc2sc(C(=O)N3CC(F)(c4ccc(-c5cccnc5)cc4)C3)c(N)c2c1C [Example B320]	42%	130 nM	
Cc1nnc2sc(C(=O)N3CC(F)(c4cccc(-c5cccnc5)c4)C3)c(N)c2c1C [Example B321]	48%	290 nM	
Cc1nnc2sc(C(=O)N3CC(F)(c4cccc(-c5ccncc5)c4)C3)c(N)c2c1C [Example B323]	44%	87 nM	
Cc1c(CN2CCOCC2)nnc2sc(C(=O)NCc3ccc(S(=O)(=O)C(F)(F)F)cc3)c(N)c12 [Example B324]	72%	460 nM	
Cc1nnc2sc(C(=O)N3CC(F)(c4cccc(-c5cnn(C)c5)c4)C3)c(N)c2c1C [Example B325]	62%	590 nM	
Cc1nnc2sc(C(=O)N3CC(F)(c4ccc(-c5cncnc5)cc4)C3)c(N)c2c1C [Example B326]	50%	390 nM	
Cc1nnc2sc(C(=O)N3CC4CN(C(=O)C5CC5)CC4C3)c(N)c2c1C (stereo not shown) [Example B332]	58%	1600 nM	
Cc1nnc2sc(C(=O)N3CC4CN(C(=O)C(C)(C)C)CC4C3)c(N)c2c1C (stereo not shown) [Example B333]	53%	> 10000 nM	
Cc1nnc2sc(C(=O)NCc3ccc(S(=O)(=O)CCO[Si](c4ccccc4)(c4ccccc4)C(C)(C)C)cc3)c(N)c2c1C [Example B335]	74%	890 nM	
Cc1nnc2sc(C(=O)NCCN(C)S(C)(=O)=O)c(N)c2c1C [Example B344]	41%	> 10000 nM	
Cc1nnc2sc(C(=O)NCCNC(=O)OCc3ccccc3)c(N)c2c1C [Example B345]	64%	3600 nM	
Cc1nnc2sc(C(=O)NCCNS(C)(=O)=O)c(N)c2c1C [Example B352]	51%	> 10000 nM	
Cc1nnc2sc(C(=O)NCCNC(=O)Oc3ccccc3)c(N)c2c1C [Example B354]		2000 nM	73%
Cc1nnc2sc(C(=O)NCCNS(=O)(=O)c3ccccc3)c(N)c2c1C [Example B360]	52%	2500 nM	
CC(=O)NCCNC(=O)c1sc2nnc(C)c(C)c2c1N [Example B366]	32%	> 10000 nM	
Cc1nnc2sc(C(=O)NCCNC(=O)C3CC3)c(N)c2c1C [Example B367]	52%	> 10000 nM	
Cc1nnc2sc(C(=O)NCCNC(=O)Oc3ccccc3)c(N)c2c1C [Example B374]		> 10000 nM	33%
Cc1nnc2sc(C(=O)NCCN(C)S(=O)(=O)c3ccccc3)c(N)c2c1C [Example B375]	51%	4000 nM	
Cc1nnc2sc(C(=O)N3CC(F)(c4ccc(S(=O)(=O)C(F)F)cc4)C3)c(N)c2c1C [Example B377]	50%	72 nM	
Cc1nnc2sc(C(=O)N3CC(F)(c4ccc(S(=O)(=O)C(F)(F)F)cc4)C3)c(N)c2c1C [Example B378]	46%	4200 nM	
Cc1nnc2sc(C(=O)N3CCC(C4CCCCC4)C3)c(N)c2c1C (stereo not shown) [Example B379]	45%	3900 nM	
Cc1nnc2sc(C(=O)N3CCc4nn(C)cc4C3)c(N)c2c1C [Example B380]	34%	> 10000 nM	
Cc1nnc2sc(C(=O)N3CCC4(CCCC4)C3)c(N)c2c1C [Example B381]	63%	710 nM	
Cc1nnc2sc(C(=O)N3CCC[C@H]3C)c(N)c2c1C [Example B382]	45%	> 10000 nM	

Second part, led by results:

Emax at 30 µM	EC50	SMILES	Emax (%)*
42%	2200 nM	Cc1nnc2sc(C(=O)N3CC(c4ccccc4)(N(C)C)C3)c(N)c2c1C [Example B322]	
67%	120 nM	Cc1nnc2sc(C(=O)NCc3ccc(N4CCOCC4)cc3)c(N)c2c1C [Example B327]	
73%	130 nM	Cc1nnc2sc(C(=O)NCc3ccc(CN(C)C)cc3)c(N)c2c1C [Example B328]	
74%	780 nM	Cc1nnc2sc(C(=O)NCc3ccc(S(C)(=O)=O)cn3)c(N)c2c1C [Example B329]	
68%	150 nM	Cc1nnc2sc(C(=O)NCc3ccc(S(C)(=O)=O)nc3)c(N)c2c1C [Example B330]	
58%	3600 nM	Cc1nnc2sc(C(=O)N3CC4CN(C(=O)c5ccc(F)cc5)CC4C3)c(N)c2c1C (stereo not shown) [Example B331]	
69%	13 nM	COc1ccc(OC(=O)N2CC(NC(=O)c3sc4nnc(C)c(C)c4c3N)C2)cc1 [Example B334]	
49%	980 nM	Cc1nnc2sc(C(=O)N3CC4CN(C(=O)Oc5ccccc5)CC4C3)c(N)c2c1C (stereo not shown) [Example B336]	
55%	600 nM	Cc1nnc2sc(C(=O)NC3CN(C(=O)NCCCN4CCOCC4)C3)c(N)c2c1C [Example B337]	
62%	44 nM	Cc1nnc2sc(C(=O)NC3CN(C(=O)Nc4ccccc4F)C3)c(N)c2c1C [Example B338]	
74%	76 nM	Cc1nnc2sc(C(=O)NC3CCN(c4ccccc4F)C3)c(N)c2c1C (stereo not shown) [Example B339]	
38%	370 nM	Cc1nnc2sc(C(=O)NCCNC(=O)c3ccc(F)cc3)c(N)c2c1C [Example B340]	
74%	120 nM	Cc1nnc2sc(C(=O)NC3CN(C(=O)OCCN(C)C)C3)c(N)c2c1C [Example B341]	
67%	9 nM	Cc1ccc(OC(=O)N2CC(NC(=O)c3sc4nnc(C)c(C)c4c3N)C2)cc1 [Example B342]	
33%	> 10000 nM	Cc1nnc2sc(C(=O)NCCN(C)C(=O)C3CC3)c(N)c2c1C [Example B343]	
79%	170 nM	Cc1nnc2sc(C(=O)NC3CCN(c4ccc(F)cc4)C3)c(N)c2c1C (stereo not shown) [Example B346]	
59%	1500 nM	Cc1nnc2sc(C(=O)NCCNC(=O)c3ccccc3)c(N)c2c1C [Example B347]	
72%	54 nM	Cc1nnc2sc(C(=O)NC3CN(C(=O)Oc4ccc(C(C)C)cc4)C3)c(N)c2c1C [Example B348]	
71%	26 nM	Cc1nnc2sc(C(=O)NC3CN(C(=O)Nc4ccc(C(C)C)cc4)C3)c(N)c2c1C [Example B349]	

Emax at 30 µM	EC50	SMILES	Emax (%)*
57%	32 nM	Cc1nnc2sc(C(=O)NC3CN(C(=O)Nc4ccc(F)cc4)C3)c(N)c2c1C [Example B351]	
57%	3400 nM	Cc1nnc2sc(C(=O)NCCNS(=O)(=O)c3ccc(F)cc3)c(N)c2c1C [Example B353]	
58%	16 nM	Cc1nnc2sc(C(=O)NC3CN(C(=O)Oc4ccc(Cl)cc4)C3)c(N)c2c1C [Example B355]	
61%	25 nM	Cc1nnc2sc(C(=O)NC3CN(C(=O)Oc4ccc(C(F)(F)F)cc4)C3)c(N)c2c1C [Example B356]	
27%	> 10000 nM	Cc1nnc2sc(C(=O)NCCN(C)C(=O)c3ccc(F)cc3)c(N)c2c1C [Example B357]	
49%	4500 nM	Cc1nnc2sc(C(=O)NCCN(C)S(=O)(=O)c3ccc(F)cc3)c(N)c2c1C [Example B358]	
55%	16 nM	Cc1nnc2sc(C(=O)NC3CN(C(=O)Oc4cccc(Cl)c4)C3)c(N)c2c1C [Example B359]	
76%	11 nM	Cc1ccccc1OC(=O)N1CC(NC(=O)c2sc3nnc(C)c(C)c3c2N)C1 [Example B361]	
64%	18 nM	Cc1nnc2sc(C(=O)NC3CN(C(=O)Nc4ccccc4)C3)c(N)c2c1C [Example B362]	
74%	27 nM	Cc1nnc2sc(C(=O)NC3CN(C(=O)Nc4ccc(OC(F)F)cc4)C3)c(N)c2c1C [Example B363]	
49%	3900 nM	Cc1nnc2sc(C(=O)NCCNC(=O)c3ccncc3)c(N)c2c1C [Example B364]	
58%	7.9 nM	Cc1cccc(OC(=O)N2CC(NC(=O)c3sc4nnc(C)c(C)c4c3N)C2)c1 [Example B365]	
69%	12 nM	COc1cccc(OC(=O)N2CC(NC(=O)c3sc4nnc(C)c(C)c4c3N)C2)c1 [Example B368]	
25%	> 10000 nM	Cc1nnc2sc(C(=O)NCCN(C)C(=O)c3ccccc3)c(N)c2c1C [Example B369]	
61%	10 nM	Cc1nnc2sc(C(=O)NC3CN(C(=O)Oc4cc(F)cc(F)c4)C3)c(N)c2c1C [Example B370]	
61%	48 nM	COc1ccc(NC(=O)N2CC(NC(=O)c3sc4nnc(C)c(C)c4c3N)C2)cc1 [Example B371]	
66%	170 nM	COc1ccc(C#CCNC(=O)c2sc3nnc(C)c(C)c3c2N)cc1 [Example B373]	
59%	17 nM	COc1ccccc1OC(=O)N1CC(NC(=O)c2sc3nnc(C)c(C)c3c2N)C1 [Example B376]	
